These results are taken from patent US5352704A, “Guanidinobenzene derivatives” (priority 1989, dated 1994).

The test system of data set [1] is human influenza virus A/WSN. As to the kind of experiment: Inhibitory action on plaque formation by human influenza virus. The format is cell-based, human influenza virus A/WSN (in MDCK dog kidney cells). Particulars: unidentified influenza virus, MDCK, 72 h, read-out: Inhibition ratio (%) of plaque formation.
In data set [2] the test system is influenza virus A/Udron/72 (H3N2). The data set is classed as in vivo, mole hamster. The settings on record: 10.0 mg/ml, 50 μl intranasal at 6, 11 and 24 hours after infection, 28 hours from infection, n = 5.
The conditions of data set [3]: related art (Virology, Raven Press, pp 323-348, 1985); cited from earlier work.

For the molecule `N=C(N)Nc1ccc(C(=O)Nc2ccc(C(=N)N)cc2)cc1` [Compound A, 4-guanidinobenzoic acid 4-amidinobenzamide.2 methanesulfonate], in data set [1], the inhibition at 12.5 µg/mL worked out at 2.9%, the inhibition at 25 µg/mL was found to be 51% and the inhibition at 50 µg/mL came out at 80.8%.
With `N=C(N)Nc1ccc(C(=O)Nc2ccc3cc(C(=N)N)ccc3c2)cc1` [Compound B, 4-guanidinobenzoic acid 6-amidino-2-naphthylamide.2 methanesulfonate], in data set [1], the inhibition at 10 µg/mL was determined as 31.4%, the inhibition at 20 µg/mL amounted to 67.6% and the inhibition at 50 µg/mL came out at 82.4%. Further, in data set [2] (**P < 0.01, tTest), the “% Inhibition (virus in lung)” value was determined as 99.0%. The PFU/lung in data set [2] (control 4.8 ± 2.2 × 10^5) is reported as 5.0 ± 10.0 × 10^3 PFU/lung.
Regarding `NC12CC3CC(CC(C3)C1)C2` [amantadine], in data set [3], the “efficacy on frequent use” value is given as “the higher the frequency of use, the lower becomes efficacy” and the side effects entry is on record as “teratogenicity”.
